Data reported in patent US10653700B2, “Composition comprising a therapeutic agent and a respiratory stimulant and methods for the use thereof” (priority 2015, dated 2020).
Counter-ions that a name gives are not always drawn. Like-named read-outs stand apart in the source and are kept apart here.

Tests used:
[1] = blood pressure in conscious rats; format: in vivo; conditions: doses that were moderately respiratory stimulant
[2] = minute volume after intravenous doxapram enantiomers in cynomolgus monkeys; format: in vivo; conditions: for behavioral side effects (agitation, seizures): monkeys
[3] = minute volume after intravenous doxapram enantiomers in rats; format: in vivo; conditions: for behavioral side effects (agitation, seizures): rats
[4] = cited from earlier work
AMPA receptor [5] = conditions: human, in vivo; cited from earlier work
AMPA receptor [6] = conditions: in vivo; cited from earlier work
[7] = cited from earlier work; remark: listed apart in the source
[8] = rhesus monkeys; cited from earlier work
[9] = in blood; cited from earlier work
[10] = lambs; cited from earlier work
[11] = obstructive sleep apnea, four subjects; cited from earlier work
[12] = mice; cited from earlier work
[13] = cited from earlier work; remark: listed apart in the source
[14] = rat, IV, single dose; cited from earlier work
[15] = humans, severe life-threatening side effects; cited from earlier work
[16] = carotid body denervated rats; cited from earlier work
[17] = intravenous; cited from earlier work
[18] = cited from earlier work; remark: listed apart in the source
[19] = chronic administration, multi-year trials; cited from earlier work
[20] = cited from earlier work; remark: listed apart in the source
[21] = carotid sinus nerve transection; cited from earlier work
[22] = healthy volunteers, room air VE unchanged

CCN1CC(CCN2CCOCC2)C(c2ccccc2)(c2ccccc2)C1=O (centres unmarked) [GAL-054]
increase in blood pressure above baseline values [1]: 15-20% | minute volume ([2]; intravenous, drug naïve and opioid challenged cynomolgus monkeys): dose-dependently increased minute volume | behavioral side effects (agitation, seizures) [2]: minimal behavioral changes | minute volume ([3]; intravenous, drug naïve and opioid challenged rats): dose-dependently increased minute volume | behavioral side effects (agitation, seizures) [3]: minimal behavioral changes

COc1ccc2c3c1O[C@H]1C(=O)CC[C@H]4[C@@H](C2)N(C)CC[C@]314.O=C(O)C(O)C(O)C(=O)O [hydrocodone bitartrate]
maximum plasma concentration (Cmax) ([4]; after 15 mg hydrocodone to a human subject, depending on formulation): 1 to 40

O=C(c1ccc2nonc2c1)N1CCOCC1 [CX717]
respiratory rate vs. placebo (AMPA receptor [5]): prevented the fall in respiratory rate | effect on respiratory depression (AMPA receptor [6]): able to reverse the respiratory depressive effects

COc1ccc2c3c1O[C@H]1C(=O)CC[C@H]4[C@@H](C2)N(C)CC[C@]314 [hydrocodone]
blood and plasma concentration ([4]; acute, fatal overdose): 100-1,600 μg/L | blood and plasma concentration ([4]; people taking the drug therapeutically): 5 to 30 µg/L | blood and plasma concentration ([4]; recreational users): 100 to 200 µg/L | serum half-life ([7]; average): 3.8 h | metabolism attributed to non-cytochrome-catalyzed reactions ([7]; in vivo): Approximately 40% | analgesic potency versus morphine [8]: higher than morphine | bound to protein [9]: 20-50%

CCN1CC(CCN2CCOCC2=O)C(c2ccccc2)(c2ccccc2)C1=O (centres unmarked) [AHR 5955, ketodoxapram]
activity of metabolite [10]: metabolically active in lambs in a dose dependent fashion

CCN1CC(CCN2CCOCC2)C(c2ccccc2)(c2ccccc2)C1=O (centres unmarked) [GAL-053]
behavioral side effects (agitation, seizures) [2]: agitation and seizures were restricted to GAL-053 | behavioral side effects (agitation, seizures) [3]: agitation and seizures were restricted to GAL-053

CCN1CC(CCN2CCOCC2)C(c2ccccc2)(c2ccccc2)C1=O (racemic) [doxapram, 1-ethyl-4-[2-(4-morpholinyl)ethyl]-3,3-diphenyl-2-pyrrolidinone monohydrochloride, monohydrate]
oxyhemoglobin desaturation events [11]: decreased the duration and severity | LD50 [12]: 85 mg/kg | T1/2 ([13]; 1.5 mg/kg bolus): 3.4 h | peak in serum ([13]; 1.5 mg/kg bolus): around 3 μg/ml | peak plasma concentration ([13]; 300 mg oral administration): 0.96 µg/mL | peak plasma concentration ([13]; IV infusion 3.5 mg/kg/hr for 2 hours): 4.0 µg/mL | T1/2 ([13]; after stop of IV infusion 3.5 mg/kg/hr for 2 hours): 3.9 h | effect on minute ventilation, time span ([13]; in vivo): 0 to 10 min | return of minute ventilation to baseline ([13]; in vivo): ≤ 15 min | LD50 [14]: 72 mg/kg | therapeutic window [15]: 20-40 fold | blood pressure [16]: increased blood pressure | duration of effect [17]: 5 to 12 min | half-life [17]: 3.4 h | onset [17]: 20 to 40 s | peak plasma time [17]: 1 to 2 min

C=CCNc1nc(NCC=C)nc(N2CCN(C(c3ccc(F)cc3)c3ccc(F)cc3)CC2)n1 [almitrine, N,N′-Diallyl-6-[4-(4,4′difluorobenzhydryl)piperazin-1-yl]-1,3,5-triazine-2,4-diyldiamine]
plasma level at which slope of hypercapnic ventilatory response increased [18, 22]: > 200 ng/mL | plasma level at which slope of hypoxic ventilatory response increased [18, 22]: > 50 ng/mL | increase in VE above baseline ([18]; room air, plasma concentrations exceeding approximately 250 μg/ml): about 11% | LD50 [12]: > 200 mg/kg | weight loss [19]: > 15%

CCCNc1nc(NCCC)nc(N(C)OC)n1 [GAL-021]
VE (AUE 0-1 h) ([20]; 1-h continuous infusions): statistically significant increases | time to half-maximal effect on VE and ETCO2 ([20]; 1-h continuous infusions): < 10 min | distribution t1/2 ([20]; after infusion): 0.5 h | terminal t1/2 ([20]; after infusion): 5 to 7 h | reduction of GAL-021-induced respiratory stimulation [21]: about 85%
